In test [1] the test system is substance P-induced scratching behavior. The test can be described thus: substance P-induced scratching behavior after intrathecal pre-administration of test peptide. It counts as in vivo, rat. The conditions noted are these: for number of scratching events induced by substance P, relative to control group (saline+SP = 100%): 10^-3M (10 nmol/10 μl) peptide intrathecal, 10^-3M SP 30 minutes after peptide; for number of scratching events induced by substance P, relative to control group (saline+SP = 100%) / number of scratching events induced by substance P, relative to control group: FIG. 1; for scratching behavior induced by substance P / suppressive effects: Example 3, FIG. 3, control 380 scratching; for scratching behavior induced by substance P / suppressive effects / scratching behavior induced by substance P / suppressive effects on scratching as administration interval is prolonged: 10^-3M peptide; for scratching behavior induced by substance P / suppressive effects / scratching behavior induced by substance P: SP 4 hours after peptide; for scratching behavior induced by substance P / suppressive effects on scratching as administration interval is prolonged: Example 2, FIG. 2; for scratching behavior induced by substance P: control about 380 scratching; for suppressive effects on scratching as administration interval is prolonged: interval 8 hours and then 14 hours. As for the experimental part:
In Example 1, 10^−3M (10 nmol/10 μl) EKC/D or D-EKC/D (1), (2) or (3) was administered to intrathecally catheterized rats via catheters. After the predetermined time periods denoted on the horizontal axis in FIG. 1, the numbers of scratching events (scratching behavior) induced by intrathecal administration of 10^−3M (10 nmol/10 μl) substance P (hereafter, referred to as “SP”) were determined. Here, the expression “10^−3M (10 nmol/10 μl) EKC/D or D-EKC/D (1), (2), or (3) was administered” refers to a situation in which 10 μl in total of a solution (that is, 10^−3M solution) containing 10 nmol of EKC/D or D-EKC/D (1), (2), or (3) was all administered. The expression, “ . . . administration of 10^−3M substance P (10 nmol/10 μl)” refers to a situation in which 10 μl in total of a solution (that is, 10^−3M solution) containing 10 nmol of the substance was all administered. The same similarly applies below.
Meanwhile, saline (10 μl) was intrathecally administered to intrathecally catheterized rats via catheters and then, after 30 minutes, 10^−3M SP (10 nmol/10 μl) was intrathecally administered to the rats. The number of the thus induced scratching events was determined to be the number of scratching events in the control group. The control group is denoted with saline-4-SP in FIG. 1.
The vertical axis of the graph in FIG. 1 indicates changes in the numbers of scratching events (represented by relative values) due to administration of 10^−3M EKC/D or D-EKC/D (1), (2), or (3) when the number of scratching events (of untreated rats in a control group) induced by intrathecal administration of 10^−3M substance P was determined to be 100%. Meanwhile, the horizontal axis indicates the intervals between the administration of EKC/D, D-EKC/D (1), (2), or (3) and 10^−3M substance P. […]
The test was conducted with procedures similar to those in Example 1, except for 4 hours of interval between the administration of each test peptide and the administration of substance P. The concentration of each test peptide and that of substance P for administration were determined to be 10^−3M (10 nmol/10 μl), similarly to Example 1. The number of scratching events in the control group was determined with procedures similar to those in Example 1, such that substance P was administered at 30 minutes after administration of saline (10 μl) and then the number was determined.

Test [2] has as its system SP-induced thermal hyperalgesia. The test is described as follows: SP-induced thermal hyperalgesia (withdrawal latency) after intrathecal pre-administration of peptide. It counts as in vivo, rat. The settings on record: 10^-3M (10 nmol/10 μl) peptide intrathecal, FIG. 7. The source says:
In this test, the effects of intrathecal pre-administration with D-EKC/D (1), (2), and (3) on the induction of thermal hyperalgesia following intrathecal administration of SP were confirmed using as an index thermal hyperalgesia, which is one type of pain-related behavior. The effects can be evaluated based on withdrawal latency period, which is the time required for withdrawal response to take place after application of noxious thermal stimulation to plantar using infrared rays.
In Example 4, 10^−3M (10 nmol/10 μl) D-EKC/D (1), (2), or (3) was administered to intrathecally catheterized rats via catheters, intrathecal administration of 10^−6M (10 pmol/10 μl) SP was performed at 4 hours and at 8 hours after administration of D-EKC/D, the presence or the absence of hyperalgesia following intrathecal administration of SP was evaluated based on the time (latency period) required for withdrawal response to take place, the latency period following SP administration in rats pretreated with D-EKC/D and the latency period resulting from administration of SP alone were compared, and thus the effects of preadministration of D-EKC/D (1), (2), and (3) were evaluated.

The mark [3] stands for this setting: 10^-3M (10 nmol/10 μl) Spantide I intrathecal, FIG. 6.
Setting [4] is: 10^-3M peptide intrathecal, SP 1 hour after peptide.
The mark [5] stands for this setting: 10^-6M SP 4 hours later, saline about 20 seconds, SP about 13 seconds.

We go through 7 substances from US8853359B2, “Endokinin C/D-derived peptides” (University of Miyazaki, priority 2009, dated 2014).

Entries after “also recorded” stand apart in the source; their conditions may differ. Square brackets hold non-standard residues; d marks the D form. Ends that are not written are not given here.

Regarding “DArg-Pro-Lys-Pro-Gln-Gln-DTrp-Phe-DTrp-Leu-Leu-NH2 ([dR]PKPQQ[dW]F[dW]LL-NH2) [Spantide I, reference compound]”, in test [1] (setting [3]), the “duration of suppressive effects on substance P-induced scratching behavior” value was at most 30 min and the “effect on substance P-induced scratching behavior” value is listed as “suppressed”.
As for “Ala-Tyr-Gln-Leu-Glu-His-Thr-DTrp-Gln-Gly-Leu-Leu-NH2 (AYQLEHTXQGLL; HELM PEPTIDE1{A.Y.Q.L.E.H.T.[dW].Q.G.L.L.[am]}$$$$V2.0; N-terminus assumed; SMILES CC(C)C[C@H](NC(=O)[C@H](CC(C)C)NC(=O)CNC(=O)[C@H](CCC(N)=O)NC(=O)[C@@H](Cc1c[nH]c2ccccc12)NC(=O)[C@@H](NC(=O)[C@H](Cc1c[nH]cn1)NC(=O)[C@H](CCC(=O)O)NC(=O)[C@H](CC(C)C)NC(=O)[C@H](CCC(N)=O)NC(=O)[C@H](Cc1ccc(O)cc1)NC(=O)[C@H](C)N)[C@@H](C)O)C(N)=O) [D-EKC/D (2)]”, the “number of scratching events induced by substance P, relative to control group (saline+SP = 100%)” value in test [1] is “about 20%”. For the same substance, the “number of scratching events induced by substance P, relative to control group” value in test [1] (setting [4]) is listed as “slight tendency of restoration”; in test [1] (10^-3M peptide intrathecal, administration interval of 45 minutes), “almost the same effects were exhibited”. Also, the “effect on latency period following administration of SP” value is “significantly attenuated” in test [2] (setting [5]) and “significant attenuation” in test [2] (10^-6M SP 8 hours later).
For the substance “Thr-Phe-Gln-DTrp-Leu-Leu-NH2 (TFQXLL; HELM PEPTIDE1{T.F.Q.[dW].L.L.[am]}$$$$V2.0; N-terminus assumed; SMILES CC(C)C[C@H](NC(=O)[C@H](CC(C)C)NC(=O)[C@@H](Cc1c[nH]c2ccccc12)NC(=O)[C@H](CCC(N)=O)NC(=O)[C@H](Cc1ccccc1)NC(=O)[C@@H](N)[C@@H](C)O)C(N)=O) [D-EKC/D (7)]”, the “scratching behavior induced by substance P / suppressive effects” value in test [1] is given as “attenuated; also recorded: minimum suppressive effects”.
The same measure, in the same setting: to “Phe-Gln-DTrp-Leu-Leu-NH2 (FQXLL; HELM PEPTIDE1{F.Q.[dW].L.L.[am]}$$$$V2.0; N-terminus assumed; SMILES CC(C)C[C@H](NC(=O)[C@H](CC(C)C)NC(=O)[C@@H](Cc1c[nH]c2ccccc12)NC(=O)[C@H](CCC(N)=O)NC(=O)[C@@H](N)Cc1ccccc1)C(N)=O) [D-EKC/D (8)]” belongs “Almost no suppressive effects; also recorded: almost the same as that of the control group”.
As for “Ala-Tyr-Gln-Leu-Glu-His-Thr-DTrp-Gln-DTrp-Leu-Leu-NH2 (AYQLEHTXQXLL; HELM PEPTIDE1{A.Y.Q.L.E.H.T.[dW].Q.[dW].L.L.[am]}$$$$V2.0; N-terminus assumed; SMILES CC(C)C[C@H](NC(=O)[C@H](CC(C)C)NC(=O)[C@@H](Cc1c[nH]c2ccccc12)NC(=O)[C@H](CCC(N)=O)NC(=O)[C@@H](Cc1c[nH]c2ccccc12)NC(=O)[C@@H](NC(=O)[C@H](Cc1c[nH]cn1)NC(=O)[C@H](CCC(=O)O)NC(=O)[C@H](CC(C)C)NC(=O)[C@H](CCC(N)=O)NC(=O)[C@H](Cc1ccc(O)cc1)NC(=O)[C@H](C)N)[C@@H](C)O)C(N)=O) [D-EKC/D (1)]”, the “number of scratching events induced by substance P, relative to control group (saline+SP = 100%)” value in test [1] is listed as “about 40%”. Moreover, the “duration of suppressive effects on substance P-induced scratching behavior” value in test [1] (10^-3M peptide intrathecal, 10^-3M SP) is “almost the same as that of the EKC/D consisting only of L-type amino acids”. For the same substance, the “number of scratching events induced by substance P, relative to control group” value in test [1] (setting [4]) is listed as “disappeared”. The “effect on latency period following administration of SP” value in test [2] (setting [5]) was “significantly attenuated”; in test [2] (10^-6M SP 8 hours later) it was “differs from D-EKC/D (2) and (3) in duration of effectiveness”.
For the substance “Leu-Glu-His-Thr-Phe-Gln-DTrp-Leu-Leu-NH2 (LEHTFQXLL; HELM PEPTIDE1{L.E.H.T.F.Q.[dW].L.L.[am]}$$$$V2.0; N-terminus assumed; SMILES CC(C)C[C@H](NC(=O)[C@H](CC(C)C)NC(=O)[C@@H](Cc1c[nH]c2ccccc12)NC(=O)[C@H](CCC(N)=O)NC(=O)[C@H](Cc1ccccc1)NC(=O)[C@@H](NC(=O)[C@H](Cc1c[nH]cn1)NC(=O)[C@H](CCC(=O)O)NC(=O)[C@@H](N)CC(C)C)[C@@H](C)O)C(N)=O) [D-EKC/D (4)]”, in test [1], the “scratching behavior induced by substance P” value is given as “never induced”, the “suppressive effects on scratching as administration interval is prolonged” value is recorded as “gradually attenuated” and the “scratching behavior induced by substance P / suppressive effects” value is reported as “attenuated”. Moreover, in test [1] (Example 2 discussion), the “suppressive effects compared with [D-Trp^10]-EKC/D consisting of 12 amino acids” value is “suppressive effects almost similar to those of [D-Trp^10]-EKC/D”.
Regarding “His-Thr-Phe-Gln-DTrp-Leu-Leu-NH2 (HTFQXLL; HELM PEPTIDE1{H.T.F.Q.[dW].L.L.[am]}$$$$V2.0; N-terminus assumed; SMILES CC(C)C[C@H](NC(=O)[C@H](CC(C)C)NC(=O)[C@@H](Cc1c[nH]c2ccccc12)NC(=O)[C@H](CCC(N)=O)NC(=O)[C@H](Cc1ccccc1)NC(=O)[C@@H](NC(=O)[C@@H](N)Cc1c[nH]cn1)[C@@H](C)O)C(N)=O) [D-EKC/D (6)]”, in test [1], the “scratching behavior induced by substance P” value is “significant suppressive effects were observed”, the “suppressive effects on scratching as administration interval is prolonged” value is given as “attenuated” and the “scratching behavior induced by substance P / suppressive effects” value is “attenuated”.
